ChEMBL document CHEMBL1201862, “PubChem BioAssay data set” (2004)
Calls of active or inactive are those of the source.

What was measured:
[1] = tested on: Streptococcus sp. 'group A'; assay: Streptococcus pyogenes SK(-)GAS viability under kanamycin – luminescence, BacTiterGlo, confirmation, counter-screen for streptokinase expression inhibitor project, dose response (AID 1900); type: functional, organism-based
Streptokinase A = target: T1, Streptokinase A (Streptococcus pyogenes serotype M1, UniProt P10520); assay: viability-normalized secreted streptokinase activity reduction – plasminogen activation absorbance, OD405, dose response (AID 1914); type: functional, Streptococcus pyogenes M1 GAS;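 further: secreted streptokinase activity via plasminogen activation per viability signal from cell pellet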
T1 sequence (P10520 whole entry): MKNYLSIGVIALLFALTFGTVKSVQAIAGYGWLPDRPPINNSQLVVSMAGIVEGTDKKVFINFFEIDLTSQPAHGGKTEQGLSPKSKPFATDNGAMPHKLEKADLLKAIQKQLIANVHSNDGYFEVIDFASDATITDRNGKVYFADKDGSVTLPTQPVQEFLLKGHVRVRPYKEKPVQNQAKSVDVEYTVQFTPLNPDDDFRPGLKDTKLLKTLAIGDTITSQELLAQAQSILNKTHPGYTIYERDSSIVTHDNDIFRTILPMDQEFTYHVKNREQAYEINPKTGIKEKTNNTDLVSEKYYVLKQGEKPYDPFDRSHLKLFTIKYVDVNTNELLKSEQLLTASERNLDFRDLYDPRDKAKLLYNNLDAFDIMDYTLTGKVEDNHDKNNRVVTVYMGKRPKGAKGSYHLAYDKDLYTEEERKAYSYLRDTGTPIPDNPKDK

Streptococcus = assay: GAS UMAA2166 growth inhibition – luminescence, BacTiterGlo, counter-screen for streptokinase expression inhibitor project, dose response (AID 1915); type: functional, organism-based;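 further: potency for reduction of bacterial viability or growth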
[2] = Luminescence Cell-Based Dose Retest to Confirm Inhibitors of Cancer Stem Cells. [Related pubchem assays (depositor defined):AID2717, AID2721]; type: functional; settings: Homo sapiens
[3] = target: Disintegrin and metalloproteinase domain-containing protein 17 (Homo sapiens, UniProt P78536); assay: inhibition of ADAM17 substrate cleavage – biochemical, quenched FRET substrate, counter-screen for ADAM10 exosite inhibitor project, dose response (AID 743253)
Disintegrin and metalloproteinase domain-containing protein 17, sequence (P78536 whole entry, the tested form may be a part): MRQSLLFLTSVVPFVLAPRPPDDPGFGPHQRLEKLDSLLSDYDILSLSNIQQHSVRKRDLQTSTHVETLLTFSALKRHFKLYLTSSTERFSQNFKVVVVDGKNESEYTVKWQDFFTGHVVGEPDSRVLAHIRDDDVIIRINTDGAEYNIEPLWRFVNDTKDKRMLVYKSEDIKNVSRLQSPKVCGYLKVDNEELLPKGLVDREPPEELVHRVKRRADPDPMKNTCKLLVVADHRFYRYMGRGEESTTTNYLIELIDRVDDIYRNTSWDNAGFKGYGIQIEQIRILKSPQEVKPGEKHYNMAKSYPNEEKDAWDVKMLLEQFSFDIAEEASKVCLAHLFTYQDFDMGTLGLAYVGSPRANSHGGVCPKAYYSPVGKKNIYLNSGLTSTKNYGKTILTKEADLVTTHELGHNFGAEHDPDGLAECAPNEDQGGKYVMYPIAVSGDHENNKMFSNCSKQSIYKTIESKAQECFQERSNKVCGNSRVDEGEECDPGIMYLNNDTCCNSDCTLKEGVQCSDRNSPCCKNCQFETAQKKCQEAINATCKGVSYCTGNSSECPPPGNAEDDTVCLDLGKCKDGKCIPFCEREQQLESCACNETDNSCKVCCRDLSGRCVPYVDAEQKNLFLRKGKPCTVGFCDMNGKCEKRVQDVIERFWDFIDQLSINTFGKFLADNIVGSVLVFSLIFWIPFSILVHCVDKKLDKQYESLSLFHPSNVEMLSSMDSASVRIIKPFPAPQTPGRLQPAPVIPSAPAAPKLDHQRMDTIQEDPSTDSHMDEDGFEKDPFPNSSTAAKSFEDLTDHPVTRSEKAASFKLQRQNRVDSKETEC

[4] = target: Potassium channel subfamily K member 9 (Homo sapiens, UniProt Q9NPC2); assay: KCNK9 flux blockade, concentration-response – cell-based, FluxOR thallium flux, selectivity assay for TASK1 inhibitor project, SAR follow-up (AID 652211); type: functional;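 further: potency is for inhibitors of the channel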
Potassium channel subfamily K member 9, sequence (Q9NPC2 whole entry): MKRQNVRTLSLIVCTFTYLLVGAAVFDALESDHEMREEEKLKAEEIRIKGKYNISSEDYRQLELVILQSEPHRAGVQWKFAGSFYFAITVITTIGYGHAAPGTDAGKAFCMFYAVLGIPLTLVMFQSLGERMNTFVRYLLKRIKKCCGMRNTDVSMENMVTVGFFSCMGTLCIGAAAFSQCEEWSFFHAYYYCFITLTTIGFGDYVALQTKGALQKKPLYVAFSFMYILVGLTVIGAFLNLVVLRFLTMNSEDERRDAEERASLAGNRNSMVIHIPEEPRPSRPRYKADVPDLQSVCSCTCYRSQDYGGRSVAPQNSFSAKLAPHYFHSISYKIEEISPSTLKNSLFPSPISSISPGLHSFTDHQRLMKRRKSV

[5] = target: Potassium channel subfamily K member 3 (Homo sapiens, UniProt O14649); assay: inhibition of human KCNK3 channel flux – CHO cells, FluxOR thallium flux, SAR follow-up (AID 652212); type: functional
Potassium channel subfamily K member 3, sequence (O14649 whole entry): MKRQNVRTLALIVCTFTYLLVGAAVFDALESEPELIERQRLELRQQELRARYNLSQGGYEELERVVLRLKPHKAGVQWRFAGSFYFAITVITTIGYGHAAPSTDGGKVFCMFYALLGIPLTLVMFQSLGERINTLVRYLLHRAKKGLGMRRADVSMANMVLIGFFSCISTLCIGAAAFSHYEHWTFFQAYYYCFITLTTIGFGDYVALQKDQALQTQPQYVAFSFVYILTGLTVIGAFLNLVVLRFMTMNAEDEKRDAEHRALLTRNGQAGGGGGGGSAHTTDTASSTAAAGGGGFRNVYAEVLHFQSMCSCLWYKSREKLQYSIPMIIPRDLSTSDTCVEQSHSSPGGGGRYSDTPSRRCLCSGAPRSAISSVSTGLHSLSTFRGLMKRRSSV

[6] = liver cell line viability loss – HepG2, luminescence plate reader, powder samples, set 2, cytotoxicity control, dose response (AID 651860); type: functional, cell-based
[7] = cytotoxicity in MITF-independent A375 cells – cell-based, CellTiter-Glo luminescence, dry powder, set 4, counter-screen for MITF inhibitor project, dose response (AID 624364); type: functional; settings: A-375;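 further: A375 melanoma cells are MITF independent so this is a counter screen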
[8] = viability loss in MITF-independent A375 cells – cell-based, CellTiter-Glo luminescence, dry powder, set 2, counter-screen for MITF inhibitor project, dose response (AID 624489); type: functional; settings: A-375;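 further: actives are compounds lowering A375 viability meaning general cytotoxicity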
[9] = M. tuberculosis growth inhibition, HTS (AID 449762); type: functional
[10] = growth inhibition of yeast DHODH-expressing 3D7 parasites – SYBR Green, dry powder samples, dose response (AID 1159570); type: functional, cell-based;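 further: parasite growth measured after 72 hours of compound exposure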
[11] = P. falciparum Dd2 growth inhibitors, dose response, SYBR Green, cherry-picked samples (AID 1159567); type: functional, cell-based
[12] = Dd2 malaria parasite growth inhibition potency – SYBR Green, dry powder samples, dose response (AID 1159566); type: functional, cell-based;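 further: potency for growth inhibition with lower SYBR green DNA signal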
[13] = growth inhibition of PfATP4-mutant resistant parasites – NITD609-resistant line, SYBR Green, dry powder, dose response (AID 1159571); type: functional, cell-based;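 further: parasites synchronized at ring stage by sorbitol before testing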
[14] = toxicity to human hepatoma HepG2 cells – cell-based, cherry-picked samples, cytotoxicity control, dose response (AID 1159577); type: functional
[15] = IC50 of insulin release inhibition, rat insulinoma INS-1E line, 5 mM glucose, cell-based (AID 1117331); type: functional
P388/ADR = assay: cells; type: functional; settings: Mus musculus
SN12K1 = assay: cells; type: functional; settings: Homo sapiens
P388 = assay: cells; type: functional; settings: Mus musculus
[16] = glucagon-like peptide-1 release potency in STC-1, concentration-response, half-maximal inhibitory concentration in the STC-1 line (AID 1117345); type: functional, cell-based
[17] = Potency on glucagon-like peptide 1 release, dose-response in NCI-H716 cell line, half maximal inhibitory concentration (AID 1117344); type: functional, cell-based
[18] = rise of 2N DNA cells, HeLa – IC50, dose response (AID 1117349); type: functional, cell-based
[19] = rise of 4N DNA cells, HeLa – IC50, dose response (AID 1117351); type: functional, cell-based

In the case of `Oc1ccc(Cl)cc1-c1cc(-c2cccc(Br)c2)[nH]n1`, the EC50 [1] is reported as 5.6 µM (active), the EC50 (Streptokinase A) is reported as > 150 µM (not active) and the EC50 (Streptococcus) is reported as 6.65 µM (active). The AC50 [2] was 5.22 µM (active) and the IC50 [3] was > 69.5 µM (inactive).

For `COc1cccc(OC)c1C(=O)Nc1cccc(NC(=O)c2cccc(C)c2)c1`, the IC50 [4] was 19.2 µM (active) and the IC50 [5] was 0.148 µM (active).

For `Cc1ccc(S(=O)(=O)Nc2cc(C(C(=O)OC(C)C)C(=O)C(F)(F)F)c(O)c3ccccc23)cc1` (stereo not given), the AC50 [6] was > 52 µM (inactive).

In the case of `C=CCNC1=C(NCCN(CC)CC)C(=O)c2ccccc2C1=O`, the AC50 [7] is reported as 36 µM (active) and the AC50 [8] is reported as 17.4 µM (active).

For `Fc1ccc(N/N=C2/CC(c3ccccc3)Oc3ccccc32)c(F)c1` (stereo not given), the IC50 [9] was > 100 µM (active).

With `O=C(c1cccc(F)c1)N1CC(=O)N2[C@H](C1)[C@@H](c1ccc(-c3cccnc3)cc1)[C@@H]2CO` the AC50 [10] was 0.151 µM (active), the AC50 [11] was 0.331 µM (active) and the AC50 [12] was 0.088 µM (active). For the same compound, the AC50 [13] was 0.0729 µM (active).

For `O=C(C1CC1)N1CC(=O)N2[C@H](C1)[C@@H](c1ccc(C#CCc3ccccc3)cc1)[C@@H]2CO`, the AC50 [11] was 9.21 µM (active) and the AC50 [14] was 35.5 µM (active).

For `O=C(CCN1CCN2CCCC2C1)N1c2ccccc2Sc2ccc(Cl)cc21` (stereo not given) [AZACLORZINE], the IC50 [15] was 16.8 µM (inactive).

With `CCCCCCCCCCCCCCCCCCOCC(O)CO` (stereo not given) [BATILOL] the GI50 (P388/ADR) was 9.82 µM (inactive), the GI50 (SN12K1) was 22.5 µM (inactive) and the GI50 (P388) was 6.65 µM (inactive). The IC50 [16] was > 40 µM (inactive) and the IC50 [17] was > 40 µM (inactive).

In the case of `CCCOc1ccc2[nH]c(NC(=O)OC)nc2c1` [OXIBENDAZOLE], the IC50 [18] is reported as 0.0622 µM (active) and the IC50 [19] is reported as 0.0567 µM (active).
